Reference: US8809319B2, “Substituted 8-oxa-10,11-dihydroimidazo[2,3-a]bicyclo[3.2.1]oct-3-enes and use thereof as an insecticide” (priority 2009, dated 2014)
≈ marks a conversion by molar mass, not a printed value. Where two headings read alike, the source gives them in different places.

Assays:
[1] = tested on: Pseudaletia separata Walker; assay: Insecticidal activity against armyworms, leaf-dipping method; type: in vivo; conditions: for mortality at 500 µg/mL / LC50: Mythimna separata; for mortality at 500 µg/mL: read-out: Pseudaletia separata Walker Mortality rate (%, 500 mg L^−1)
Source text: Second instar Pseudaletia separata Walker larvae were used as the subjects and the dipping method was employed for testing.
Pseudaletia separata Walker, which is a very important lepidopterans pest of various grains, can be suitably used in various of applications, for example, in the study of toxicity, such as the stomach toxicity, contact poisoning, comprehensive and residual effects of insecticides, and other aspects of insect toxicology, as well as the screen test for new compounds. Pseudaletia separata Walker extermination activity was tested in accordance with a method reported in the literature.
Operation procedure of the leaf-dipping method: Each sample was precisely weighed, and 2 mL of DMSO and 18 mL of water were added respectively; and then, three drops of the emulsion agent 2001 (procured from Shanghai Nongyaochang Co., Ltd.) were added to form the test liquid. A blank was also formulated by adding three drops of the 2201 emulsion agent to 2 mL of DMSO and […]. Fresh corn leaves were torn into small pieces and immersed for about five seconds in the liquid, then removed, air-dried, and placed in a 100-mL jar. About 20 2nd instar larvae were introduced into the jar. The jar was closed using white gauze and a rubber band, and the larvae were fed with corn soaked with the liquid continuously. The mortality rate of the larvae was checked after five days. The requisite temperature was 22° C. to 27° C., humidity 70% to 80%. There was no need to correct the mortality rates for each treatment if the blank mortality rate was 5% or less; however, if the control mortality rate was 5% to 20%, Abbott's correction should be used for the mortality rates for each treatment. Abbott's formula: Corrected mortality rate=[(treated mortality rate−control mortality rate)/(100−control mortality rate)×100].

Aphis craccivora = assay: Insecticidal activity against aphids, dipping method; type: in vivo; conditions: for mortality at 500 µg/mL / LC50: Aphis craccivora; for mortality at 500 µg/mL: read-out: Aphis craccivora Mortality rate (%, 500 mg L^−1)
Description: Aphids, which belong to the Homoptera and have piercing-sucking mouth parts, are a common pest for agricultural crops. Aphis craccivora was used as the subject, and a dipping method was employed for testing.
Testing method: Each sample was precisely weighed, and 2 mL of DMSO and 18 mL of water were added respectively; then, three drops of the emulsion agent 200I were added to form a testing liquid; a blank was also prepared by adding three drops of emulsion agent 220I to 2 mL of DMSO and 18 mL of water. Broad bean leaves adhered by a certain number of insects were immersed in the testing liquid for three to five seconds, then removed and air-dried; the insects were moved into a clean container together with feed, and the container was placed in a dry, thermostatic recovery room. After 24 hours, the number of dead insects was checked.

[2] = tested on: Nilaparvata lugens resistant strain; assay: Insecticidal activity against Nilaparvata lugens, micro-drip method, resistant strain; type: in vivo; conditions: for Magnitude of resistance: resistant strain versus susceptible strain; for Relative toxicity / LD50 (ng/pest): resistant strain; for Relative toxicity: relative to imidacloprid; for LD50 (ng/pest): topical micro-drip, 48 hours
Description: (§1) Nilaparvata lugens, which belongs to the Homoptera and has piercing-sucking mouth parts, is a common pest for agricultural crops. Nilaparvata lugens was used as the subject, and the micro-drip measurement method reported by Nagata was employed for testing.
(§2) Operation procedure: Unmated winged females two to three days after eclosion were selected as the test subjects; the compounds were diluted in acetone to a series of concentrations. The insects were paralyzed by carbon dioxide, and the liquid (0.08 μL) was dripped onto the pronotum of the insects using a manual micro-dripper (Burkard Manufacturing Co., Ltd., Rickmansworth, UK). Each of the concentrations was used to treat about 30 insects in triplicate. Acetone was used as the control. The treated adult insects were cultured on rice seedlings grown without soil in an incubator (20×20×10 cm), where the temperature was controlled at 25±1° C. with 16/8 hours of light and dark cycle. The results were checked after 48 hours, and the LD50 was calculated using a standard probability analysis method.

[3] = tested on: Nilaparvata lugens susceptible strain; assay: Insecticidal activity against Nilaparvata lugens, micro-drip method, susceptible strain; type: in vivo; conditions: for Magnitude of resistance / Relative toxicity / LD50 (ng/pest): susceptible strain; for Relative toxicity: relative to imidacloprid; for LD50 (ng/pest): topical micro-drip, 48 hours
Description: as §1, §2

[4] = tested on: nicotinic acetylcholine receptors of Periplaneta americana; assay: Mechanism of action, electrophysiological testing on cockroach nAChRs; type: cell-based
Source text: (§3) The compound (1a) was separately subjected to electrophysiological testing and isotope marker substitution testing.

[5] = tested on: N1 α 1/β 2 receptors expressed by the oocytes; assay: Mechanism of action, electrophysiological testing on receptors expressed by oocytes; type: cell-based
Source text: as §3

[6] = foliar, 120 h, read-out: Pseudaletia separata Walker LC50 (mmol L^−1)
[7] = 24 h, read-out: Aphis craccivora LC50 (mmol L^−1)

**Q.** What does the source list for O=[N+]([O-])C1=C2N(Cc3ccc(Cl)cc3)CCN2[C@@H]2CC[C@H]1O2 [Compound 1d, 9-(4-chloro-benzyl)-4-nitro-8-oxa-10,11-dihydroimidazo-[2,3-a]-bicyclo-[3,2,1]-oct-3-ene]?
**A.** mortality at 500 µg/mL ([1]; foliar, 120 h): 0%; mortality at 500 µg/mL (Aphis craccivora; 24 h): 95.7%

**Q.** For O=[N+]([O-])NC1=NCCN1Cc1ccc(Cl)nc1 [Imidacloprid, reference compound], which LC50 [1, 6] is on record?
**A.** 38.7 µg/mL (≈ 151 µM)

**Q.** And the mortality at 500 µg/mL ([1]; foliar, 120 h)?
**A.** 100%

**Q.** And the Magnitude of resistance [2]?
**A.** 168.40

**Q.** And the Relative toxicity [2]?
**A.** 1.00

**Q.** And the “LD50 (ng/pest)” value [2]?
**A.** 22.1614 ± 3.7522 ng/pest

**Q.** And the Magnitude of resistance [3]?
**A.** 1.00

**Q.** And the Relative toxicity [3]?
**A.** 1.00

**Q.** What about the “LD50 (ng/pest)” value [3] of the same molecule?
**A.** 0.1316 ± 0.0154 ng/pest

**Q.** And the LC50 (Aphis craccivora; [7])?
**A.** 8.93 µg/mL (≈ 34.9 µM)

**Q.** And the mortality at 500 µg/mL (Aphis craccivora; 24 h)?
**A.** 100%

**Q.** How did the mortality at 500 µg/mL ([1]; foliar, 120 h) turn out when O=[N+]([O-])C1=C2N(Cc3ccc(Cl)nc3)CCN2[C@H]2CCC[C@@H]1O2 [Compound 2a, 10-((6-chloropyrid-3-yl)methyl)-4-nitro-9-oxa-11,12-dihydroimidazo-[2,3-a]-bicyclo-[3,3,1]-non-3-ene] was run?
**A.** 0%

**Q.** And the Magnitude of resistance [2]?
**A.** 4.58

**Q.** What about the Relative toxicity [2] of the same molecule?
**A.** 1.17

**Q.** What about the “LD50 (ng/pest)” value [2] of the same molecule?
**A.** 18.9795 ± 2.3501 ng/pest

**Q.** And the Magnitude of resistance [3]?
**A.** 1.00

**Q.** What about the Relative toxicity [3] of the same molecule?
**A.** 0.32

**Q.** What about the “LD50 (ng/pest)” value [3] of the same molecule?
**A.** 4.1440 ± 0.6136 ng/pest

**Q.** What about the mortality at 500 µg/mL (Aphis craccivora; 24 h) of the same molecule?
**A.** 87.3%

**Q.** For O=[N+]([O-])C1=C2N(Cc3ccccc3)CCN2[C@H]2CCC[C@@H]1O2 [Compound 2c, 10-benzyl-4-nitro-9-oxa-11,12-dihydroimidazo-[2,3-a]-bicyclo-[3,3,1]-non-3-ene], which mortality at 500 µg/mL ([1]; foliar, 120 h) is on record?
**A.** 0%

**Q.** And the mortality at 500 µg/mL (Aphis craccivora; 500 mg L^−1, dipping, after 24 hours)?
**A.** 55.6%

**Q.** Which results are given for O=[N+]([O-])C1=C2N(Cc3cnc(Cl)s3)CCN2[C@H]2CCC[C@@H]1O2 [Compound 2b, 10-((2-chlorothiazol-5-yl)methyl)-4-nitro-9-oxa-11,12-dihydroimidazo-[2,3-a]-bicyclo-[3,3,1]-non-3-ene]?
**A.** mortality at 500 µg/mL ([1]; foliar, 120 h): 0%; mortality at 500 µg/mL (Aphis craccivora; 24 h): 98.2%

**Q.** Which results are given for O=[N+]([O-])C1=C2N(Cc3ccccc3)CCN2[C@@H]2CC[C@H]1O2 [Compound 1c, 9-benzyl-4-nitro-8-oxa-10,11-dihydroimidazo-[2,3-a]-bicyclo-[3,2,1]-oct-3-ene]?
**A.** mortality at 500 µg/mL ([1]; foliar, 120 h): 0%; mortality at 500 µg/mL (Aphis craccivora; 24 h): 13.6%

**Q.** Which results are given for O=[N+]([O-])C1=C2N(Cc3cnc(Cl)s3)CCN2[C@@H]2CC[C@H]1O2 [Compound 1b, 9-((2-chlorothiazol-5-yl)methyl)-4-nitro-8-oxa-10,11-dihydroimidazo-[2,3-a]-bicyclo-[3,2,1]-oct-3-ene]?
**A.** mortality at 500 µg/mL ([1]; foliar, 120 h): 100%; mortality at 500 µg/mL (Aphis craccivora; 24 h): 100%

**Q.** O=[N+]([O-])C1=C2N(Cc3ccc(Cl)cc3)CCN2C2CCCC1O2 (stereo not drawn) [Compound 2d, 10-(4-chlorobenzyl)-4-nitro-9-oxa-11,12-dihydroimidazo-[2,3-a]-bicyclo-[3,3,1]-non-3-ene] was tested. Which “Pseudaletia separata Walker Mortality rate (%, 500 mg L^−1)” value ([1]; in vivo) did it give?
**A.** 0%

**Q.** What about the “Aphis craccivora Mortality rate (%, 500 mg L^−1)” value (Aphis craccivora; in vivo) of the same molecule?
**A.** 38.9%

**Q.** With O=[N+]([O-])C1=C2N(Cc3ccc(Cl)nc3)CCN2[C@@H]2CC[C@H]1O2 [Compound 1a, 9-((6-chloropyrid-3-yl)methyl)-4-nitro-8-oxa-10,11-dihydroimidazo-[2,3-a]-bicyclo-[3,2,1]-oct-3-ene] as the molecule, how does the “mode of action on nicotinic acetylcholine receptor (nAChRs)” value ([4]; conclusion from electrophysiological and isotope marker substitution testing) read?
**A.** antagonist

**Q.** What about the “agonistic action on nicotinic acetylcholine receptors of Periplaneta americana” value ([4]; electrophysiological testing) of the same molecule?
**A.** no agonistic action

**Q.** What about the “inhibition of the agonist response to acetylcholine” value ([4]; receptor preparation not given) of the same molecule?
**A.** can inhibit the agonist response to acetylcholine

**Q.** What about the LC50 [1, 6] of the same molecule?
**A.** 12.5 µg/mL (≈ 38.7 µM)

**Q.** And the mortality at 500 µg/mL ([1]; foliar, 120 h)?
**A.** 100%

**Q.** What about the LC50 ([1]; read-out: LC50 against Pseudaletia separata Walker) of the same molecule?
**A.** 12.5 µg/mL (≈ 38.7 µM)

**Q.** And the “agonistic action on N1 α 1/β 2 receptors expressed by the oocytes” value [5]?
**A.** no agonistic action

**Q.** And the “activity against imidacloprid-resistant Niloparvata lugens versus imidacloprid” value [2]?
**A.** 50 times

**Q.** What about the Magnitude of resistance [2] of the same molecule?
**A.** 6.64

**Q.** And the Relative toxicity [2]?
**A.** 50.00

**Q.** And the “LD50 (ng/pest)” value [2]?
**A.** 0.4925 ± 0.0811 ng/pest

**Q.** What about the “activity against susceptible Niloparvata lugens versus imidacloprid” value [3] of the same molecule?
**A.** generally the same as that of imidacloprid

**Q.** And the Magnitude of resistance [3]?
**A.** 1.00

**Q.** And the Relative toxicity [3]?
**A.** 1.77

**Q.** And the “LD50 (ng/pest)” value [3]?
**A.** 0.0742 ± 0.0106 ng/pest

**Q.** What about the LC50 (Aphis craccivora; [7]) of the same molecule?
**A.** 1.52 µg/mL (≈ 4.71 µM)

**Q.** What about the mortality at 500 µg/mL (Aphis craccivora; 24 h) of the same molecule?
**A.** 100%

**Q.** And the LC50 (Aphis craccivora; read-out: LC50 against aphids)?
**A.** 1.52 µg/mL (≈ 4.71 µM)
